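Following 48 hours of exposure in 96-well plates, responses at five concentrations were used to interpolate endpoints linearly. Definition used: TGI = concentration required for complete inhibition of growth.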
Experiments:
Assay in all cases: inhibition of tumour cell growth, NCI panel, 48 h
NCI-H460 lung = tested on: NCI-H460 lung
SR leukemia = tested on: SR leukemia
SNB-78 CNS = tested on: SNB-78 CNS
U251 CNS = tested on: U251 CNS
KM20L2 colon = tested on: KM20L2 colon
MALME-3M melanoma = tested on: MALME-3M melanoma
NCI-H522 lung = tested on: NCI-H522 lung
LOX IMVI melanoma = tested on: LOX IMVI melanoma
SK-MEL-28 melanoma = tested on: SK-MEL-28 melanoma
CCRF-CEM leukemia = tested on: CCRF-CEM leukemia
M14 melanoma = tested on: M14 melanoma
OVCAR-3 ovarian = tested on: OVCAR-3 ovarian
DMS 273 small cell lung = tested on: DMS 273 small cell lung
NCI-H226 lung = tested on: NCI-H226 lung
SF-268 CNS = tested on: SF-268 CNS
OVCAR-8 ovarian = tested on: OVCAR-8 ovarian
SNB-19 CNS = tested on: SNB-19 CNS
HOP-92 NSCLC = tested on: HOP-92 NSCLC
OVCAR-4 ovarian = tested on: OVCAR-4 ovarian
HL-60(TB) leukemia = tested on: HL-60(TB) leukemia
EKVX NSCLC = tested on: EKVX NSCLC
K-562 leukemia = tested on: K-562 leukemia
UACC-257 melanoma = tested on: UACC-257 melanoma
SK-OV-3 ovarian = tested on: SK-OV-3 ovarian
SF-295 CNS = tested on: SF-295 CNS
DLD-1 colon = tested on: DLD-1 colon
ACHN renal = tested on: ACHN renal
SK-MEL-5 melanoma = tested on: SK-MEL-5 melanoma
HCC-2998 colon = tested on: HCC-2998 colon
HT29 colon = tested on: HT29 colon
SF-539 CNS = tested on: SF-539 CNS
UO-31 renal = tested on: UO-31 renal
NCI-H23 lung = tested on: NCI-H23 lung
LXFL 529 NSCLC = tested on: LXFL 529 NSCLC
CAKI-1 renal = tested on: CAKI-1 renal
SK-MEL-2 melanoma = tested on: SK-MEL-2 melanoma
XF 498 CNS = tested on: XF 498 CNS
RPMI-8226 leukemia = tested on: RPMI-8226 leukemia
SN12C renal = tested on: SN12C renal
DMS 114 small cell lung = tested on: DMS 114 small cell lung
HOP-62 NSCLC = tested on: HOP-62 NSCLC
COLO 205 colon = tested on: COLO 205 colon
RXF 393 renal = tested on: RXF 393 renal
IGROV1 ovarian = tested on: IGROV1 ovarian
KM12 colon = tested on: KM12 colon
HCT-15 colon = tested on: HCT-15 colon
UACC-62 melanoma = tested on: UACC-62 melanoma
OVCAR-5 ovarian = tested on: OVCAR-5 ovarian
786-0 renal = tested on: 786-0 renal
A549 NSCLC = tested on: A549 NSCLC
RXF-631 renal = tested on: RXF-631 renal
MOLT-4 leukemia = tested on: MOLT-4 leukemia
TK-10 renal = tested on: TK-10 renal
SW-620 colon = tested on: SW-620 colon
SNB-75 CNS = tested on: SNB-75 CNS
HOP-18 NSCLC = tested on: HOP-18 NSCLC
DU-145 prostate = tested on: DU-145 prostate
MDA-MB-435 = tested on: MDA-MB-435
MCF7 breast = tested on: MCF7 breast
MDA-MB-231 breast = tested on: MDA-MB-231 breast
A498 renal = tested on: A498 renal
HCT-116 colon = tested on: HCT-116 colon
PC-3 prostate = tested on: PC-3 prostate
BT-549 breast = tested on: BT-549 breast
M19-MEL melanoma = tested on: M19-MEL melanoma
NCI/ADR-RES ovarian = tested on: NCI/ADR-RES ovarian

`CCC(=O)c1cn(C)c(=O)c2ccccc12` was tested. Which TGI (NCI-H460 lung) did it give?
The TGI was over 100 µM.

And the TGI (SR leukemia)?
Its TGI is over 100 µM.

What about the TGI (SNB-78 CNS) of the same compound?
The TGI was over 100 µM.

And the TGI (U251 CNS)?
Its TGI is over 100 µM.

And the TGI (KM20L2 colon)?
Its TGI is over 100 µM.

And the TGI (MALME-3M melanoma)?
The TGI was over 100 µM.

And the TGI (NCI-H522 lung)?
The TGI was over 100 µM.

And the TGI (LOX IMVI melanoma)?
The TGI was over 100 µM.

What about the TGI (SK-MEL-28 melanoma) of the same compound?
The TGI was over 100 µM.

What about the TGI (CCRF-CEM leukemia) of the same compound?
Its TGI is over 100 µM.

What about the TGI (M14 melanoma) of the same compound?
Its TGI is over 100 µM.

And the TGI (OVCAR-3 ovarian)?
The TGI was over 100 µM.

And the TGI (DMS 273 small cell lung)?
Its TGI is over 100 µM.

What about the TGI (NCI-H226 lung) of the same compound?
Its TGI is over 100 µM.

What about the TGI (SF-268 CNS) of the same compound?
Its TGI is over 100 µM.

And the TGI (OVCAR-8 ovarian)?
Its TGI is over 100 µM.

And the TGI (SNB-19 CNS)?
The TGI was over 100 µM.

What about the TGI (HOP-92 NSCLC) of the same compound?
The TGI was over 100 µM.

And the TGI (OVCAR-4 ovarian)?
Its TGI is over 100 µM.

And the TGI (HL-60(TB) leukemia)?
Its TGI is over 100 µM.

What about the TGI (EKVX NSCLC) of the same compound?
The TGI was over 100 µM.

What about the TGI (K-562 leukemia) of the same compound?
The TGI was over 100 µM.

And the TGI (UACC-257 melanoma)?
Its TGI is over 100 µM.

What about the TGI (SK-OV-3 ovarian) of the same compound?
The TGI was over 100 µM.

What about the TGI (SF-295 CNS) of the same compound?
The TGI was over 100 µM.

What about the TGI (DLD-1 colon) of the same compound?
Its TGI is over 100 µM.

What about the TGI (ACHN renal) of the same compound?
The TGI was over 100 µM.

And the TGI (SK-MEL-5 melanoma)?
The TGI was over 100 µM.

What about the TGI (HCC-2998 colon) of the same compound?
Its TGI is over 100 µM.

And the TGI (HT29 colon)?
The TGI was over 100 µM.

And the TGI (SF-539 CNS)?
Its TGI is over 100 µM.

And the TGI (UO-31 renal)?
The TGI was over 100 µM.

And the TGI (NCI-H23 lung)?
The TGI was over 100 µM.

And the TGI (LXFL 529 NSCLC)?
Its TGI is over 100 µM.

And the TGI (CAKI-1 renal)?
The TGI was over 100 µM.

What about the TGI (SK-MEL-2 melanoma) of the same compound?
Its TGI is over 100 µM.

What about the TGI (XF 498 CNS) of the same compound?
The TGI was over 100 µM.

What about the TGI (RPMI-8226 leukemia) of the same compound?
The TGI was over 100 µM.

And the TGI (SN12C renal)?
Its TGI is over 100 µM.

What about the TGI (DMS 114 small cell lung) of the same compound?
Its TGI is over 100 µM.

And the TGI (HOP-62 NSCLC)?
The TGI was over 100 µM.

What about the TGI (COLO 205 colon) of the same compound?
The TGI was over 100 µM.

What about the TGI (RXF 393 renal) of the same compound?
The TGI was over 100 µM.

What about the TGI (IGROV1 ovarian) of the same compound?
Its TGI is over 100 µM.

What about the TGI (KM12 colon) of the same compound?
Its TGI is over 100 µM.

And the TGI (HCT-15 colon)?
The TGI was over 100 µM.

And the TGI (UACC-62 melanoma)?
The TGI was over 100 µM.

And the TGI (OVCAR-5 ovarian)?
The TGI was over 100 µM.

And the TGI (786-0 renal)?
Its TGI is over 100 µM.

What about the TGI (A549 NSCLC) of the same compound?
Its TGI is over 100 µM.

And the TGI (RXF-631 renal)?
Its TGI is over 100 µM.

And the TGI (MOLT-4 leukemia)?
Its TGI is over 100 µM.

What about the TGI (TK-10 renal) of the same compound?
The TGI was over 100 µM.

And the TGI (SW-620 colon)?
Its TGI is over 100 µM.

And the TGI (SNB-75 CNS)?
Its TGI is over 100 µM.

With `O=C1C=C(c2c(O)ccc3ccccc23)c2ccccc2C1=O` as the compound, how does the TGI (NCI-H460 lung) read?
Its TGI is 26.8 µM.

What about the TGI (SNB-78 CNS) of the same compound?
The TGI was 8.64 µM.

What about the TGI (U251 CNS) of the same compound?
Its TGI is 5.13 µM.

And the TGI (HOP-18 NSCLC)?
The TGI was 23.3 µM.

What about the TGI (KM20L2 colon) of the same compound?
Its TGI is 32.1 µM.

What about the TGI (DU-145 prostate) of the same compound?
Its TGI is 24 µM.

What about the TGI (MALME-3M melanoma) of the same compound?
Its TGI is 26.7 µM.

And the TGI (MDA-MB-435)?
The TGI was 5.86 µM.

What about the TGI (LOX IMVI melanoma) of the same compound?
Its TGI is 4.42 µM.

And the TGI (SK-MEL-28 melanoma)?
The TGI was over 50 µM.

And the TGI (CCRF-CEM leukemia)?
The TGI was 7.55 µM.

What about the TGI (M14 melanoma) of the same compound?
Its TGI is 16.8 µM.

And the TGI (OVCAR-3 ovarian)?
Its TGI is 6.02 µM.

And the TGI (DMS 273 small cell lung)?
The TGI was 11.3 µM.

And the TGI (NCI-H226 lung)?
Its TGI is 27.9 µM.

What about the TGI (MCF7 breast) of the same compound?
Its TGI is 2.11 µM.

And the TGI (SF-268 CNS)?
The TGI was 17.2 µM.

What about the TGI (OVCAR-8 ovarian) of the same compound?
Its TGI is 5.3 µM.

And the TGI (SNB-19 CNS)?
Its TGI is 22.4 µM.

What about the TGI (HOP-92 NSCLC) of the same compound?
The TGI was 5.09 µM.

And the TGI (OVCAR-4 ovarian)?
The TGI was 3.79 µM.

And the TGI (HL-60(TB) leukemia)?
The TGI was 15.3 µM.

And the TGI (EKVX NSCLC)?
Its TGI is 11.9 µM.

What about the TGI (K-562 leukemia) of the same compound?
Its TGI is 23.4 µM.

And the TGI (UACC-257 melanoma)?
The TGI was 6.49 µM.

What about the TGI (SK-OV-3 ovarian) of the same compound?
Its TGI is 23.9 µM.

And the TGI (SF-295 CNS)?
The TGI was 12.4 µM.

And the TGI (DLD-1 colon)?
The TGI was 16.4 µM.

What about the TGI (ACHN renal) of the same compound?
Its TGI is 11.7 µM.

And the TGI (SK-MEL-5 melanoma)?
The TGI was 7.42 µM.

What about the TGI (HCC-2998 colon) of the same compound?
Its TGI is 26.5 µM.

What about the TGI (HT29 colon) of the same compound?
The TGI was 27.2 µM.

And the TGI (SF-539 CNS)?
The TGI was 4.36 µM.

And the TGI (UO-31 renal)?
Its TGI is 6.52 µM.

And the TGI (NCI-H23 lung)?
The TGI was 4.92 µM.

What about the TGI (MDA-MB-231 breast) of the same compound?
Its TGI is 8.79 µM.

And the TGI (LXFL 529 NSCLC)?
Its TGI is 2.96 µM.

What about the TGI (A498 renal) of the same compound?
Its TGI is 13.4 µM.

And the TGI (CAKI-1 renal)?
Its TGI is 24 µM.

And the TGI (SK-MEL-2 melanoma)?
Its TGI is 15.8 µM.

What about the TGI (RPMI-8226 leukemia) of the same compound?
Its TGI is 15.7 µM.

What about the TGI (HCT-116 colon) of the same compound?
The TGI was 8.06 µM.

What about the TGI (SN12C renal) of the same compound?
The TGI was 12.2 µM.

What about the TGI (DMS 114 small cell lung) of the same compound?
Its TGI is 6.71 µM.

And the TGI (HOP-62 NSCLC)?
Its TGI is 33.5 µM.

What about the TGI (COLO 205 colon) of the same compound?
Its TGI is 21.7 µM.

And the TGI (PC-3 prostate)?
The TGI was 4.2 µM.

And the TGI (RXF 393 renal)?
Its TGI is 5.06 µM.

And the TGI (IGROV1 ovarian)?
The TGI was 9.01 µM.

What about the TGI (KM12 colon) of the same compound?
The TGI was 11.8 µM.

What about the TGI (HCT-15 colon) of the same compound?
Its TGI is 13.1 µM.

What about the TGI (UACC-62 melanoma) of the same compound?
The TGI was 5.48 µM.

And the TGI (OVCAR-5 ovarian)?
Its TGI is 25 µM.

What about the TGI (BT-549 breast) of the same compound?
Its TGI is 5.32 µM.

What about the TGI (786-0 renal) of the same compound?
The TGI was 4.89 µM.

And the TGI (A549 NSCLC)?
The TGI was 25.7 µM.

What about the TGI (RXF-631 renal) of the same compound?
Its TGI is 32.9 µM.

And the TGI (M19-MEL melanoma)?
Its TGI is 8.81 µM.

What about the TGI (MOLT-4 leukemia) of the same compound?
The TGI was 4.41 µM.

And the TGI (NCI/ADR-RES ovarian)?
The TGI was 8.96 µM.

And the TGI (TK-10 renal)?
Its TGI is 25.8 µM.

And the TGI (SW-620 colon)?
Its TGI is 5.21 µM.

And the TGI (SNB-75 CNS)?
Its TGI is 12.9 µM.
